Measured values: patent publication US11702392B2, “Pyrimidinone derivatives as SHP2 antagonists” (MERCK PATENT GMBH, priority 2019, dated 2023)
Entries after “also recorded” stand apart in the source; their conditions may differ.

How the values were obtained:
[1] = molecular target: Full length SHP2 protein (Recombinant Human SHP-2) (Homo sapiens (Human), UniProt Q06124); assay: SHP2 biochemical assay (DiFMUP substrate, activating peptide IRS1_2pY); conditions: activating peptide IRS1_2pY 140 nM, 60 min
Sequence of Full length SHP2 protein (Recombinant Human SHP-2) (Q06124 2-593): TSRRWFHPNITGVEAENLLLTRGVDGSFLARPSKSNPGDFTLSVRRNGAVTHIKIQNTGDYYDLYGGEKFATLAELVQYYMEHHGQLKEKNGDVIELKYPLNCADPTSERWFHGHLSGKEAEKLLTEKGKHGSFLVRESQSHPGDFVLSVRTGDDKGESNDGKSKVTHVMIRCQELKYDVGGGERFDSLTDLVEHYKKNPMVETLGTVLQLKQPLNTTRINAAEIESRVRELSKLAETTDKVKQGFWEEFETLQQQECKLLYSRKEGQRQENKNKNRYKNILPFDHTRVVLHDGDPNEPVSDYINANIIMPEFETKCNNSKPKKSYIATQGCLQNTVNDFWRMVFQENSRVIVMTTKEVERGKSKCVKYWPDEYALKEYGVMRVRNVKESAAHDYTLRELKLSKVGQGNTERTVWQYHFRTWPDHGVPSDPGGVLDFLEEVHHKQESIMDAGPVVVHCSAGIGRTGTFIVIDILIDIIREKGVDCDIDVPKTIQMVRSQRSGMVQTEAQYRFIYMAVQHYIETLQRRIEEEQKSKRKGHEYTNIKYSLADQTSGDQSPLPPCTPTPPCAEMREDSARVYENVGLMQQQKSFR
Protocol: The inhibition of SHP2 by compounds of the invention was monitored using the surrogate substrate DiFMUP after protein activation by a peptide bearing two appropriately spaced phosphotyrosine. […] The generation of the DiFMU product by activated SHP2 was monitored through Fluorescence measurement with a PerkinElmer Envision reader. The inhibitor dose response curves were analyzed with Genedata Screener.

[2] = Pharmacokinetics in female CD1 mice (oral / intravenous); type: in vivo; conditions: mouse; for AUC ng/ml*h (normalized to 1 mp/k) / Cmax ng/mL (normalized to 1 mg/k): normalized to 1 mg/kg; for Fz: oral
Protocol: Female CD1 mice (N=3) received a single oral (gavage) or a single intravenous (bolus) injection of compound. […] Consecutive blood samples were taken sub-lingually under isofluorane inhalation from animals after 0.083 (IV), 0.25, 0.5, 1, 2, 4, 6 and 24 h and were further processed to obtain plasma. Samples were protein precipitated and analysed by LC/MS/MS.

EBC-1 xenografts = assay: EBC-1 xenograft (cMET amplified non-small cell lung cancer); type: in vivo; conditions: 100 mg/kg QD oral gavage, CD-1 nude mice
Description: CD-1 nude mice were inoculated with 5 million EBC-1 cells.

[3] = molecular target: auto-activated mutant protein SHP2 E76K (Homo sapiens (Human), UniProt Q06124, E76K); assay: SHP2 E76K active mutant biochemical assay with and without activating peptide
Sequence of auto-activated mutant protein SHP2 E76K (Q06124 whole entry E76K): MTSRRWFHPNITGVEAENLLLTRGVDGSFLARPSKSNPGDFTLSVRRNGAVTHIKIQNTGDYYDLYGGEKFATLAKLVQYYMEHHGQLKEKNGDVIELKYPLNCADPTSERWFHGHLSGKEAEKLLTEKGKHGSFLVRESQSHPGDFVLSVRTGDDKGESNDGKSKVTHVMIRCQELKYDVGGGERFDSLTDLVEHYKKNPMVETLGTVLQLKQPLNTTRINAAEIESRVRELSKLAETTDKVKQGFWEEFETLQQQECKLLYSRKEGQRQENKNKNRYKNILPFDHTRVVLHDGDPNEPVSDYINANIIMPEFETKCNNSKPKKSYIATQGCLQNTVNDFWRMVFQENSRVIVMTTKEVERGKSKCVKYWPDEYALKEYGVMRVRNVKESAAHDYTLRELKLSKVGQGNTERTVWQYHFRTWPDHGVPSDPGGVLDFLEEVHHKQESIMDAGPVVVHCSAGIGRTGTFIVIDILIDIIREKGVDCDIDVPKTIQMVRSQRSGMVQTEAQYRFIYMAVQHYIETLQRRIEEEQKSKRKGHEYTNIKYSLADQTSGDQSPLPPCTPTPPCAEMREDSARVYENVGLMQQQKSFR
Protocol: The inhibition of SHP2 by compounds of the invention was monitored using the surrogate substrate DiFMUP after protein activation by a peptide bearing two appropriately spaced phosphotyrosine. Full length SHP2 protein (Recombinant HumanSHP-2, E. coli derived Ser2Arg593, N-terminal 6His tag from R&D systems; 0.0.24 nM) was incubated with activating peptide, IRSI_2pY (New England Peptide, 140 nM) and DiFMUP (molecular probes, 80 uM) at RT in buffer (HEPES pH 7.2 60 mM, DDT 5 mM, KCl 75 mM, NaCl 75 mM, EDTA 1 mM, Tween 20 0.05%) in presence of compound (10 concentrations range, top concentration 50 μM) for 60 min. The generation of the DiFMU product by activated SHP2 was monitored through Fluorescence measurement with a PerkinElmer Envision reader. The inhibitor dose response curves were analyzed with Genedata Screener.

MiaPaCa-2 xenografts = type: in vivo, mouse; conditions: 50 or 100 mg/kg QD oral gavage, H2D Rag2 mice
Description: H2D Rag2 mice were inoculated with 3 million MiaPaCa-2 cells.

KYSE-520 xenografts = assay: Kyse-520 xenograft (EGFR amplified esophageal cancer); conditions: H2D Rag2 mice
Description: H2D Rag2 mice were inoculated with 5 million KYSE-520 cells mixed with matrigel.
In vivo efficacy of compound 74a in an EGFR amplified setting was investigated in Kyse-520 xenografts. H2D Rag2 mice were inoculated with 5 million KYSE-520 cells mixed with matrigel.

HPAF-2 xenografts = conditions: 50 mg/kg compound 23B or 60 mg/kg RMC-4550 QD oral gavage, CB17.SCID mice
U87-MG xenografts = assay: U87-MG xenograft (PTEN LOF glioblastoma); type: in vivo, mouse; conditions: 50 mg/kg QD oral gavage, CD-1 nude mice
Description: CD-1 nude mice were inoculated with 10 million U87-MG cells.

[4] = molecular target: Kv11.1 (hERG) ion channel (Homo sapiens (Human), UniProt Q12809); assay: hERG patch clamp in Kv11.1 (hERG) transfected HEK293 cells; type: cell-based
Sequence of Kv11.1 (hERG) ion channel (Q12809 whole entry): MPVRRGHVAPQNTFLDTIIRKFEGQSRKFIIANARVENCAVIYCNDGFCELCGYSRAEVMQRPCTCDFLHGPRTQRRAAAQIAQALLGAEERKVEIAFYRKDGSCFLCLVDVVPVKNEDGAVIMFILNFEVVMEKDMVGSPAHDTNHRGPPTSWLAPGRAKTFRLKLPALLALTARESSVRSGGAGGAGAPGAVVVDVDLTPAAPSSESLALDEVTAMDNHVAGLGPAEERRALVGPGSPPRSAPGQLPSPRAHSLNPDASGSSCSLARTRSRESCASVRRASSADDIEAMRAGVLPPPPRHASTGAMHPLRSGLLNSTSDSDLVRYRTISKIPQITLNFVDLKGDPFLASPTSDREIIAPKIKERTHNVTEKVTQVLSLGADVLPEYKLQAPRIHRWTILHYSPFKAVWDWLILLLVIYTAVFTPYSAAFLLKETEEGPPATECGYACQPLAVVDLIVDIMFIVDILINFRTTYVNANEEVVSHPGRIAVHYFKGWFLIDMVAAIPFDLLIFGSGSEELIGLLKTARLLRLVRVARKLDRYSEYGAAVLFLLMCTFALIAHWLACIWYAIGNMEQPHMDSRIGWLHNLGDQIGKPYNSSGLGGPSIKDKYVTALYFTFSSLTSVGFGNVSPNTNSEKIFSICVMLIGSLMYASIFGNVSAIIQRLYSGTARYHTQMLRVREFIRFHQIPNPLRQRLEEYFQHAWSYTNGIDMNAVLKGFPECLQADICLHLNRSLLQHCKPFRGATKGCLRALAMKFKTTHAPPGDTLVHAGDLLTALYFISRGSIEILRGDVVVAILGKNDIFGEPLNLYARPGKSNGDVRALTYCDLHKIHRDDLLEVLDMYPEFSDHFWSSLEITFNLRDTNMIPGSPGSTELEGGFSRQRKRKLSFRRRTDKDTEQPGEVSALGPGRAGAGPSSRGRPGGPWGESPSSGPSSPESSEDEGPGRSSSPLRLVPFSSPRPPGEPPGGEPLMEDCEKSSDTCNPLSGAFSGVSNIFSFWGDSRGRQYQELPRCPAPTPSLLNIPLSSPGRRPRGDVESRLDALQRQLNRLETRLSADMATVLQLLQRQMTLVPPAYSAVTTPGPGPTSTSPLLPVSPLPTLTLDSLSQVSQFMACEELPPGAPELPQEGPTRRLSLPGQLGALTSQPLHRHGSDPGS
Protocol: Inhibition of the ion channel hErg (or Kv11.1) current causes QT interval prolongation resulting in potentially fatal ventricular tachyarrhythmia called Torsade de Pointes.
hERG ion channel activity was assessed using a patch clamp technique in stable Kv11.1 (hERG) transfected human embryonic kidney cell line (HEK293). Whole cell recordings were carried out with an automated patch clamp device Patchliner™ from Nanion Technologies, Munich following manufacturer recommendation. Different concentrations of the test compound or reference, quinidine, were applied to whole cells suspension and current was measured using a pulse pattern with fixed amplitudes.

pERK1/2 in KYSE520 cells = assay: p-Erk cellular assay in KYSE520 (Mesoscale); type: cell-based; conditions: Homo sapiens, KYSE-520, 2 h, read-out: pERK1/2 in Cell KYSE520 IC50
Protocol: The effect of SHP2 inhibitors on pERK level was assessed using phospho-specific antibody using Mesoscale quantification platform. For measuring change in pERK levels using mesoscale, 30,000 cells of KYSE520 cells were plated in 96-well tissue culture treated plate in 175 μl volume of media. After an overnight incubation at 37° C., various SHP2 inhibitors were added in different concentration to each well maintaining duplicate wells across plates and incubated with compounds for 2 h at 37° C. followed by a wash with ice cold PBS buffer. The cells were then lysed in lysis buffer and processed and analyzed for p-ERK/ERK as per manufacturer's instructions (Mesoscale discovery, cat No. […]-3).

[5] = system: MCP-1 production in U937 cells; assay: Cytokine release assay: MCP-1 production in U937 cells stimulated with IL-6; type: cell-based
Protocol: Selected compounds were tested in a cytokine release assay in monocytic cells (U937) to test their anti-inflammatory properties. Cells were plated in a 96-well cell culture plate using serum-free media. The cells were treated with indicated concentrations of SHP-2 inhibitors for 30 minutes followed by overnight stimulation with recombinant IL-6 (50 ng/mL). The MCP-1 production was measured in the culture supernatant using a MCP-1 AlphaLISA kit (Perkin Elmer).

[6] = 10, 30 or 100 mg/kg QD oral gavage
[7] = 0.8, 2.5 or 8 mg/kg QD oral gavage

`C[C@@H]1OCC2(CCN(c3cc(=O)n(-c4cccc(Cl)c4Cl)c(C(F)F)n3)CC2)[C@@H]1N` (atropisomer, axis not shown; (M)) [Compound 20b, (3M)-6-[(3S,4S)-4-amino-3-methyl-2-oxa-8-azaspiro[4.5]decan-8-yl]-3-(2,3-dichlorophenyl)-2-(difluoromethyl)-3,4-dihydropyrimidin-4-one] showed an IC50 [1] of 1100 nM.
With `Cc1c(N2CCC3(CC2)Cc2ccccc2[C@@H]3N)nc(C)n(-c2cccc(Cl)c2Cl)c1=O` (atropisomer, axis not shown; (M)) [Compound 74c, (3M)-6-[(1R)-1-amino-1,3-dihydrospiro[indene-2,4′-piperidin]-1′-yl]-3-(2,3-dichlorophenyl)-2,5-dimethyl-3,4-dihydropyrimidin-4-one] the IC50 [1] was 250 nM.
For `Cc1c(N2CCC3(CCC[C@@H]3N)CC2)nc(N)n(-c2cccc(Cl)c2Cl)c1=O` (atropisomer, axis not shown; (M)) [Compound 78c, (3M)-2-amino-6-[(1S)-1-amino-8-azaspiro[4.5]decan-8-yl]-3-(2,3-dichlorophenyl)-5-methyl-3,4-dihydropyrimidin-4-one], the IC50 [1] was 2100 nM.
In the case of `Cc1nc(N2CCC3(CC2)CO[C@@H](C)[C@H]3N)cc(=O)n1-c1cccc(Cl)c1Cl` (single isomer, unassigned) [Compound 3b], the “AUC ng/ml*h (normalized to 1 mp/k)” value [2] is reported as 1765 ng·h/mL, the “Cmax ng/mL (normalized to 1 mg/k)” value [2] is reported as 223 ng/mL and the Fz [2] is reported as 85%.
In the case of `Cc1c(N2CCC3(CC2)CO[C@@H](C)[C@H]3N)nc(C)n(-c2cccc(Cl)c2Cl)c1=O` (single isomer, unassigned) [Compound 23b], the tolerability (EBC-1 xenografts) is reported as “well tolerated”, the tumor growth (EBC-1 xenografts) is reported as “reduces tumor growth; also recorded: Significant tumor growth inhibition” and the “AUC ng/ml*h (normalized to 1 mp/k)” value [2] is reported as 1222 ng·h/mL. The “Cmax ng/mL (normalized to 1 mg/k)” value [2] was 177 ng/mL, the Fz [2] was 100% and the IC50 [3] was 12000 nM. For the same molecule, the tolerability (MiaPaCa-2 xenografts) was “well tolerated”, the tolerability (KYSE-520 xenografts; [6]) was “well tolerated” and the tumor growth (KYSE-520 xenografts; [6]) was “reduce growth of the tumor a significant amount; also recorded: dose-dependent significant tumor growth inhibition”. For the same molecule, the tolerability (HPAF-2 xenografts) was “well tolerated”, the tumor growth (HPAF-2 xenografts) was “Significant tumor inhibition” and the tumor growth (U87-MG xenografts) was “reduces tumor size as compared to baseline; also recorded: Tumor regression”.
With `Cc1c(N2CCC3(CC2)Cc2ncccc2[C@H]3N)nc(C)n(-c2cccc(Cl)c2Cl)c1=O` (single isomer, unassigned) [Compound 66b] the “AUC ng/ml*h (normalized to 1 mp/k)” value [2] was 2387 ng·h/mL, the “Cmax ng/mL (normalized to 1 mg/k)” value [2] was 367 ng/mL and the Fz [2] was 100%. The “Split between hErg and cell activity Ki (patch Clamp)/IC50 (KYSE)” value [4] was 580.
With `Cc1c(N2CCC3(CCC[C@H]3N)CC2)nc(C)n(-c2cccc(Cl)c2Cl)c1=O` (single isomer, unassigned) [Compound 67a] the IC50 [1] was 19000 nM.
For `Cc1c(N2CCC3(CCC[C@H]3N)CC2)nc(C)n(-c2cccc(Cl)c2Cl)c1=O` (single isomer, unassigned) [Compound 67b], the IC50 (pERK1/2 in KYSE520 cells) was 198 nM.
With `Cc1c(N2CCC3(CC2)Oc2cnccc2C3N)nc(C)n(-c2cccc(Cl)c2Cl)c1=O` (single isomer, unassigned) [Compound 80c] the IC50 (pERK1/2 in KYSE520 cells) was 420 nM.
For `Cc1c(N2CCC3(CC2)Oc2ccccc2[C@H]3N)nc(C)n(-c2cccc(Cl)c2Cl)c1=O` (single isomer, unassigned) [Compound 81b], the “AUC ng/ml*h (normalized to 1 mp/k)” value [2] was 3270 ng·h/mL, the “Cmax ng/mL (normalized to 1 mg/k)” value [2] was 450 ng/mL and the Fz [2] was 48%.
For `Cc1c(N2CCC3(CC2)Cc2ccccc2[C@H]3N)nc(C)n(-c2cccc(Cl)c2Cl)c1=O` [Compound 74a, (3M)-6-[(1S)-1-amino-1,3-dihydrospiro[indene-2,4′-piperidin]-1′-yl]-3-(2,3-dichlorophenyl)-2,5-dimethyl-3,4-dihydropyrimidin-4-one], the “AUC ng/ml*h (normalized to 1 mp/k)” value [2] was 2108 ng·h/mL, the “Cmax ng/mL (normalized to 1 mg/k)” value [2] was 129 ng/mL and the Fz [2] was 100%. The tolerability (KYSE-520 xenografts; [7]) was “well tolerated”, the tumor growth (KYSE-520 xenografts; [7]) was “reduce growth of the tumor a significant amount; also recorded: dose-dependent significant tumor growth inhibition” and the IC50 [1] was 1 nM.
`Cc1c(N2CCC3(CC2)c2ncccc2C[C@H]3N)nc(C)n(-c2cccc(Cl)c2Cl)c1=O` [Compound 75, (3M)-6-[(6R)-6-amino-5,6-dihydrospiro[cyclopenta[b]pyridine-7,4′-piperidin]-1′-yl]-3-(2,3-dichlorophenyl)-2,5-dimethyl-3,4-dihydropyrimidin-4-one] showed an IC50 (pERK1/2 in KYSE520 cells) of 824 nM and an IC50 [1] of 120 nM.
With `Cc1c(N2CCC3(CC2)C[C@@H](C)C[C@H]3N)nc(C)n(-c2cccc(Cl)c2Cl)c1=O` [Compound 77, (3M)-6-[(1R,3R)-1-amino-3-methyl-8-azaspiro[4.5]decan-8-yl]-3-(2,3-dichlorophenyl)-2,5-dimethyl-3,4-dihydropyrimidin-4-one] the “MCP-1 production (FIG. 1)” value [5] was “suppressed MCP-1 production”.
For `Cc1c(N2C[C@H]3CC(CO)C[C@@]3(CN)C2)nc(C)n(-c2cccc(Cl)c2Cl)c1=O` (stereo partly drawn) [Compound 101, (3M)-6-[(3aR,6aS)-3a-(aminomethyl)-5-(hydroxymethyl)-octahydrocyclopenta[c]pyrrol-2-yl]-3-(2,3-dichlorophenyl)-2,5-dimethyl-3,4-dihydropyrimidin-4-one], the IC50 [1] was 230 nM.
For `Cc1nc(N2CCC3(CC2)CO[C@@H](C)[C@H]3N)c(CO)nc1-c1cccc(Cl)c1Cl` [RMC-4550, reference compound], the “AUC ng/ml*h (normalized to 1 mp/k)” value [2] was 735 ng·h/mL, the “Cmax ng/mL (normalized to 1 mg/k)” value [2] was 85 ng/mL and the Fz [2] was 86%. The tumor growth (HPAF-2 xenografts) was “Significant tumor inhibition”.
